According to PubChem BioAssay (NCI):
Several values for one entry are separate records, joined by “and”; a condition that tells them apart may be missing. Equal entries are not always repeated.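 Compound exposure: 48 hours, 5 concentrations, 96-well plates. TGI: concentration producing complete growth inhibition.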

Tests used:
Experiment in all cases: DTP human tumour cell line panel, 48 h
[1] = system: SNB-78 CNS
[2] = system: SK-MEL-2 melanoma
[3] = system: K-562 leukemia
[4] = system: RXF 393 renal
[5] = system: KM12 colon
[6] = system: HCT-116 colon
[7] = system: M14 melanoma
[8] = system: SK-MEL-5 melanoma
[9] = system: HCC-2998 colon
[10] = system: TK-10 renal
[11] = system: OVCAR-4 ovarian
[12] = system: NCI-H23 lung
[13] = system: NCI-H522 lung
[14] = system: ACHN renal
[15] = system: HOP-18 NSCLC
[16] = system: MALME-3M melanoma
[17] = system: CAKI-1 renal
[18] = system: COLO 205 colon
[19] = system: A549 NSCLC
[20] = system: NCI-H226 lung
[21] = system: DMS 114 small cell lung
[22] = system: M19-MEL melanoma
[23] = system: SR leukemia
[24] = system: DMS 273 small cell lung
[25] = system: HL-60(TB) leukemia
[26] = system: KM20L2 colon
[27] = system: OVCAR-5 ovarian
[28] = system: HOP-92 NSCLC
[29] = system: MOLT-4 leukemia
[30] = system: CCRF-CEM leukemia
[31] = system: LXFL 529 NSCLC
[32] = system: A498 renal
[33] = system: NCI-H460 lung
[34] = system: SN12C renal
[35] = system: UACC-62 melanoma
[36] = system: U251 CNS
[37] = system: SK-OV-3 ovarian
[38] = system: SF-295 CNS
[39] = system: HCT-15 colon
[40] = system: SF-268 CNS
[41] = system: SK-MEL-28 melanoma
[42] = system: 786-0 renal
[43] = system: HT29 colon
[44] = system: HOP-62 NSCLC
[45] = system: SNB-19 CNS
[46] = system: UACC-257 melanoma
[47] = system: DLD-1 colon
[48] = system: SNB-75 CNS
[49] = system: EKVX NSCLC
[50] = system: LOX IMVI melanoma
[51] = system: SF-539 CNS
[52] = system: OVCAR-8 ovarian
[53] = system: OVCAR-3 ovarian
[54] = system: IGROV1 ovarian
[55] = system: SW-620 colon
[56] = system: UO-31 renal
[57] = system: RPMI-8226 leukemia

For `COc1cc2c(cc1OC)-c1cc(OC)c(OC)cc1[C@H]1CN3CCC[C@@]3(O)C=C21`, the TGI [1] was 0.00164 µM, the TGI [2] was less than 0.0001 µM and the TGI [3] was 0.101 µM and 0.0521 µM. The TGI [4] was 0.0126 µM, the TGI [5] was 0.00316 µM and 0.0152 µM and the TGI [6] was 0.0101 µM. For the same molecule, the TGI [7] was 0.000105 µM, the TGI [8] was 0.000139 µM and the TGI [9] was 0.0437 µM. The TGI [10] was 0.161 µM, the TGI [11] was 0.0032 µM and 0.0117 µM and the TGI [12] was 0.000267 µM. It also gave a TGI [13] of less than 0.0001 µM, a TGI [14] of 0.000787 µM and a TGI [15] of 0.000164 µM. For the same molecule, the TGI [16] was less than 0.0001 µM, the TGI [17] was 0.000403 µM and the TGI [18] was less than 0.0001 µM. For the same molecule, the TGI [19] was 0.106 µM and 0.414 µM, the TGI [20] was 0.00253 µM and the TGI [21] was 0.00117 µM. The TGI [22] was 0.000362 µM, the TGI [23] was less than 0.0001 µM and the TGI [24] was 0.000208 µM. It also gave a TGI [25] of less than 0.0001 µM.

In the case of `Cc1ccc(Oc2ccc(C(=O)c3cccc(C(=O)c4ccc(Oc5ccc(C)cc5)cc4)n3)cc2)cc1`, the TGI [1] is reported as greater than 100 µM, the TGI [26] is reported as greater than 100 µM and the TGI [2] is reported as greater than 100 µM. For the same molecule, the TGI [3] was greater than 100 µM, the TGI [27] was greater than 100 µM and the TGI [28] was greater than 100 µM. For the same molecule, the TGI [4] was greater than 100 µM, the TGI [5] was greater than 100 µM and the TGI [29] was greater than 100 µM. The TGI [6] was greater than 100 µM, the TGI [30] was greater than 100 µM and the TGI [31] was greater than 100 µM. For the same molecule, the TGI [32] was greater than 100 µM, the TGI [33] was greater than 100 µM and the TGI [34] was greater than 100 µM. For the same molecule, the TGI [7] was greater than 100 µM, the TGI [8] was greater than 100 µM and the TGI [35] was greater than 100 µM. The TGI [36] was greater than 100 µM, the TGI [9] was greater than 100 µM and the TGI [37] was greater than 100 µM. It also gave a TGI [10] greater than 100 µM, a TGI [11] greater than 100 µM and a TGI [38] greater than 100 µM. It also gave a TGI [12] greater than 100 µM, a TGI [39] greater than 100 µM and a TGI [13] greater than 100 µM. For the same molecule, the TGI [14] was greater than 100 µM, the TGI [15] was greater than 100 µM and the TGI [40] was greater than 100 µM. For the same molecule, the TGI [16] was greater than 100 µM, the TGI [41] was greater than 100 µM and the TGI [42] was greater than 100 µM. For the same molecule, the TGI [43] was greater than 100 µM, the TGI [44] was greater than 100 µM and the TGI [45] was greater than 100 µM. The TGI [46] was greater than 100 µM, the TGI [17] was greater than 100 µM and the TGI [47] was greater than 100 µM. For the same molecule, the TGI [48] was greater than 100 µM, the TGI [18] was greater than 100 µM and the TGI [49] was greater than 100 µM. The TGI [50] was greater than 100 µM, the TGI [51] was greater than 100 µM and the TGI [52] was greater than 100 µM. The TGI [53] was greater than 100 µM, the TGI [19] was greater than 100 µM and the TGI [20] was greater than 100 µM. The TGI [54] was greater than 100 µM, the TGI [21] was greater than 100 µM and the TGI [55] was greater than 100 µM. The TGI [56] was greater than 100 µM, the TGI [23] was greater than 100 µM and the TGI [24] was greater than 100 µM. The TGI [25] was greater than 100 µM.

`N/N=C(\CCN1CCCC1)CC(c1ccccc1)c1c(O)c2ccccc2oc1=O` (configuration not stated) gave a TGI [1] greater than 100 µM, a TGI [26] greater than 100 µM and a TGI [2] greater than 100 µM. It also gave a TGI [3] greater than 100 µM, a TGI [27] greater than 100 µM and a TGI [28] greater than 100 µM. The TGI [4] was greater than 100 µM, the TGI [5] was greater than 100 µM and the TGI [29] was greater than 100 µM. It also gave a TGI [6] greater than 100 µM, a TGI [30] greater than 100 µM and a TGI [31] greater than 100 µM. It also gave a TGI [33] greater than 100 µM, a TGI [34] greater than 100 µM and a TGI [7] greater than 100 µM. The TGI [8] was greater than 100 µM, the TGI [35] was greater than 100 µM and the TGI [36] was greater than 100 µM. For the same molecule, the TGI [9] was greater than 100 µM, the TGI [37] was greater than 100 µM and the TGI [10] was greater than 100 µM. The TGI [11] was greater than 100 µM, the TGI [38] was greater than 100 µM and the TGI [12] was greater than 100 µM. For the same molecule, the TGI [39] was greater than 100 µM, the TGI [13] was greater than 100 µM and the TGI [14] was greater than 100 µM. The TGI [15] was greater than 100 µM, the TGI [40] was greater than 100 µM and the TGI [16] was greater than 100 µM. The TGI [41] was greater than 100 µM, the TGI [42] was greater than 100 µM and the TGI [43] was greater than 100 µM. It also gave a TGI [44] greater than 100 µM, a TGI [45] greater than 100 µM and a TGI [46] greater than 100 µM. The TGI [17] was greater than 100 µM, the TGI [47] was greater than 100 µM and the TGI [48] was greater than 100 µM. It also gave a TGI [18] greater than 100 µM, a TGI [49] greater than 100 µM and a TGI [50] greater than 100 µM. The TGI [51] was greater than 100 µM, the TGI [52] was greater than 100 µM and the TGI [53] was greater than 100 µM. For the same molecule, the TGI [19] was greater than 100 µM, the TGI [20] was greater than 100 µM and the TGI [57] was greater than 100 µM. The TGI [54] was greater than 100 µM, the TGI [21] was greater than 100 µM and the TGI [55] was greater than 100 µM. For the same molecule, the TGI [22] was greater than 100 µM, the TGI [23] was greater than 100 µM and the TGI [24] was greater than 100 µM. For the same molecule, the TGI [25] was greater than 100 µM.

Work on `COc1cc2c(cc1O)[C@@]1(Cc3ccc(OC)c(OC)c3)CCC(=O)N1CC2` yielded a TGI [1] greater than 100 µM, a TGI [26] greater than 100 µM and a TGI [3] greater than 100 µM. For the same molecule, the TGI [27] was greater than 100 µM, the TGI [28] was 92.4 µM and the TGI [4] was greater than 100 µM. For the same molecule, the TGI [5] was greater than 100 µM, the TGI [29] was greater than 100 µM and the TGI [6] was greater than 100 µM. For the same molecule, the TGI [30] was greater than 100 µM, the TGI [31] was greater than 100 µM and the TGI [32] was greater than 100 µM. It also gave a TGI [33] greater than 100 µM, a TGI [34] greater than 100 µM and a TGI [7] greater than 100 µM. The TGI [8] was greater than 100 µM, the TGI [35] was greater than 100 µM and the TGI [9] was greater than 100 µM. The TGI [10] was greater than 100 µM, the TGI [11] was greater than 100 µM and the TGI [38] was greater than 100 µM. For the same molecule, the TGI [12] was greater than 100 µM, the TGI [39] was greater than 100 µM and the TGI [14] was greater than 100 µM. For the same molecule, the TGI [15] was greater than 100 µM, the TGI [40] was greater than 100 µM and the TGI [16] was greater than 100 µM. For the same molecule, the TGI [41] was greater than 100 µM, the TGI [42] was greater than 100 µM and the TGI [43] was greater than 100 µM. The TGI [44] was greater than 100 µM, the TGI [45] was greater than 100 µM and the TGI [46] was greater than 100 µM. For the same molecule, the TGI [17] was greater than 100 µM, the TGI [47] was greater than 100 µM and the TGI [48] was greater than 100 µM. For the same molecule, the TGI [18] was greater than 100 µM, the TGI [49] was greater than 100 µM and the TGI [50] was greater than 100 µM. It also gave a TGI [51] greater than 100 µM, a TGI [52] greater than 100 µM and a TGI [53] greater than 100 µM. It also gave a TGI [19] greater than 100 µM, a TGI [20] greater than 100 µM and a TGI [57] greater than 100 µM. It also gave a TGI [54] greater than 100 µM, a TGI [21] greater than 100 µM and a TGI [56] greater than 100 µM. For the same molecule, the TGI [22] was greater than 100 µM, the TGI [23] was greater than 100 µM and the TGI [24] was greater than 100 µM. For the same molecule, the TGI [25] was greater than 100 µM.
